Experiments:
[1] = tested on: A549 (human lung cancer cells); assay: MTT cytotoxicity assay; format: cell-based; settings: 48 h incubation, mean ± SD
Procedure: (§1) The anticancer activities of RuRe-1 and RuRe-2 against four cancer cell lines: HeLa (human cervical cancer cells), HepG2 (human hepatocellular carcinoma), A549 (human lung cancer cells), A549R (cisplatin-resistant A549) and one normal cell line LO2 (human normal liver cells) were determined by 3-(4,5-dimethylthiazole)-2,5-diphenyltetraazolium bromide (MTT) assay, while the mononuclear complexes Ru-1, Ru-2, Re-1 and cisplatin were selected as controls. […] And the in vitro antiproliferative efficacies of the compounds against HeLa cells were in the following order: RuRe-2 > RuRe-1 > Re-1 > cisplatin > Ru-1 > Ru-2. […] The anticancer activity of the mononuclear rhenium complex Re-1 was between 5.6 μM and 8.0 μM, which contributed the most to the antitumor activities of the heteronuclear Ru(II)-Re(Ⅰ) metal complexes.
(§2) Cell lines and culture conditions. HeLa, HepG2, A549, A549R and LO2 cells were purchased from Nanjing KeyGen Biotech., and cultured in DMEM or RPMI 1640 complete medium at 37 ℃ with 5% CO2 atmosphere.
(§3) In vitro cytotoxicity assay. The anti-tumor activity of mononuclear complexes Ru-1, Ru-2, Re-1 and heteronuclear RuRe-1 and RuRe-2 were determined by MTT (5 mg/mL) assay. Cells were placed in 96-well plates and cultured for 24 h at 37 ℃ in a 5% CO2 incubator. After replacing the culture medium with fresh medium containing RuRe-1 or RuRe-2 at the indicated concentration, cells were cultured for 48 h. 20 μL MTT was added to each well 4 h before the end of the incubation. Subsequently, the liquid in the cell wells was poured out and 150 μL/well DMSO was added to dissolve the MTT-formazan crystals. The absorbance of living cells at 570 nm was detected.

[2] = tested on: HeLa (human cervical cancer cells); assay: MTT cytotoxicity assay; format: cell-based; settings: 48 h incubation, mean ± SD
Procedure: as §1, §2, §3

[3] = tested on: HepG2 (human hepatocellular carcinoma); assay: MTT cytotoxicity assay; format: cell-based; settings: 48 h incubation, mean ± SD
Procedure: as §1, §2, §3

[4] = tested on: LO2 (human normal liver cells); assay: MTT cytotoxicity assay; format: cell-based; settings: 48 h incubation, mean ± SD
Procedure: as §1, §2, §3

HeLa cells [5] = assay: Mitochondrial membrane potential (MMP) by Rh123 staining; format: cell-based, human; settings: 6 h, confocal microscopy
Description: Apoptosis is associated with a decrease in MMP ([Wu et al., 2022]), so we investigated the effects of RuRe-1 and RuRe-2 on MMP. A decrease in fluorescence intensity of rhodamine 123 (Rh123) can indicate the loss of MMP ([Ma et al., 2019]). […] The decline of MMP further confirmed that RuRe-1 and RuRe-2 could influence mitochondrial function and promote apoptosis.
FIGURE 6 RuRe-1 and RuRe-2 induced the loss of MMP analyzed by confocal microscopy with Rh123 staining (λ ex = 488 nm, λ em = 530 ± 20 nm). The incubation time of the compounds was 6 h. Scale bar: 20 μm.
Measurement of MMP. After HeLa cells were adhered to the confocal dishes, the medium was replaced with medium containing the indicated concentrations of RuRe-1 and RuRe-2 for 6 h. Subsequently, the medium was aspirated and the cells were washed three times with PBS, then stained with Rh123 (1 μg/mL) for 30 mins. After washing with PBS twice, cells were observed under a confocal microscopy (λex = 488 nm, λem = 530 ± 20 nm).

HeLa cells [6] = assay: Intracellular ROS by H2DCFDA staining; format: cell-based, human; settings: 6 h, confocal microscopy
Procedure: ROS are natural by-product of normal oxygen metabolism and play an important role in cellular signaling transduction and homeostasis in vivo ([Casas et al., 2020]). It has been shown that the excessive production of ROS may cause oxidative stress and lead to cell death ([Jia et al., 2020]). Herein, cells were treated with RuRe-1 and RuRe-2 for 6 h and then stained with 2′,7′-dichlorodihydrouorescein diacetate (H2DCFDA). H2DCFDA is non-fluorescent and can be oxidized by intracellular ROS to highly fluorescent 2′,7′-dichlorofluorescein (DCF) ([Abdel Hadi et al., 2021]). The intensity of green fluorescence can respond to the accumulation of intracellular ROS.
FIGURE 7 RuRe-1 and RuRe-2 induced the elevation of intracellular ROS levels examined by confocal microscopy with H2DCFDA staining (λ ex = 488 nm, λ em = 530 ± 20 nm). The incubation time of the compounds was 6 h. Scale bar: 20 μm.
Measurement of intracellular ROS. After HeLa cells were adhered to the confocal dishes, the medium was replaced with medium containing the indicated concentrations of RuRe-1 and RuRe-2 for 6 h. Subsequently, the medium was aspirated and cells were washed three times with serum-free DMEM. Then, cells were co-incubated with fluorescent dye H2DCFDA (10 μM) at 37 °C for 10 mins and washed three times with PBS and visualized by a confocal microscope (λex = 488 nm, λem = 530 ± 20 nm).

HeLa cells [7] = assay: Wound healing assay (cell migration); format: cell-based, human; settings: 36 h, control 15%
Procedure: Metastasis is a major obstacle to cancer treatment, which will cause the failure of cancer treatment and the death of patients ([Fouani et al., 2017]). Cell migration is the main feature of metastasis. Herein, the effects of RuRe-1 and RuRe-2 on inhibiting cell migration were studied through wound healing. […] After 36 h cultivated, both RuRe-1 and RuRe-2 inhibited cell migration, and the wound closure rates were 3% and 2%, respectively, which were lower than 15% of the control group (Figure 8B).
FIGURE 8 (A) Wound healing of HeLa cells after treated with RuRe-1 (3.1 μM) and RuRe-2 (2.5 μM) for 0, 24, and 36 h. (B) Quantitative data of wound-healing. Wound closure (%) = [1−(width at indicated time)/(width at 0 h)] × 100%. (C) Inhibition of colony formation by RuRe-1 and RuRe-2. (D) Quantitative data of colony formation assays.
Wound healing assay. When reaching 80%–90% confluence, the cells were crossed with a 200 μL pipette tip, then photographed under an inverted microscope to record the width of the scratch. After the cells recovered for 1 h, the serum-free medium containing the indicated concentrations of RuRe-1 and RuRe-2 were added and incubated for a specific time (24 h, 36 h), meantime, the width of the scratch was recorded.

Row | Compound | IC50 [1] [µM] | IC50 [2] [µM] | IC50 [3] [µM] | IC50 [4] [µM] | MMP (green fluorescence intensity of Rh123) (HeLa cells [5]) | intracellular ROS levels (H2DCFDA) (HeLa cells [6]) | wound closure rate (HeLa cells [7]; 3.1 μM) [%] | wound closure rate (HeLa cells [7]; 2.5 μM) [%]
1 | F[P-](F)(F)(F)(F)F.F[P-](F)(F)(F)(F)F.F[P-](F)(F)(F)(F)F.[C-]#[O+].[C-]#[O+].[C-]#[O+].[Re+].[Ru+2].c1ccc(-c2ccccn2)nc1.c1ccc(-c2ccccn2)nc1.c1ccc(-c2ccnc3c2ccc2c(-c4ccccc4)ccnc23)cc1.c1cnc2c(c1)c1nc(-c3ccncc3)[nH]c1c1cccnc12 [RuRe-1, [Ru(bpy)2LRe(CO)3(DIP)](PF6)3] | 11.8 ± 0.4 | 3.1 ± 0.8 | 10 ± 0.8 | 25.1 ± 0.7 | decrease in the green fluorescence intensity of Rh123 in a dose-dependent manner | increase in intracellular ROS levels in a concentration-dependent manner | 3 | 
2 | F[P-](F)(F)(F)(F)F.F[P-](F)(F)(F)(F)F.F[P-](F)(F)(F)(F)F.[C-]#[O+].[C-]#[O+].[C-]#[O+].[Re+].[Ru+2].c1ccc(-c2ccnc3c2ccc2c(-c4ccccc4)ccnc23)cc1.c1cnc2c(c1)c1nc(-c3ccncc3)[nH]c1c1cccnc12.c1cnc2c(c1)ccc1cccnc12.c1cnc2c(c1)ccc1cccnc12 [RuRe-2, [Ru(phen)2LRe(CO)3(DIP)](PF6)3] | 11.2 ± 0.9 | 2.5 ± 1.3 | 12.5 ± 0.9 | 28.1 ± 1.1 | decrease in the green fluorescence intensity of Rh123 in a dose-dependent manner | increase in intracellular ROS levels in a concentration-dependent manner |  | 2
